By Ki is commonly meant a measure of affinity in units of concentration, obtained from inhibition or displacement. A low value points to tighter binding.

In assay [1] the target is T1, Kappa-type opioid receptor (Homo sapiens, UniProt P41145). As to the kind of experiment: Binding constant towards human Opioid receptor kappa 1 was reported.
Assay [2] has as its target T1, Kappa-type opioid receptor. As to the kind of experiment: Binding affinity against opioid receptor kappa 1 from human cloned receptor.
The target of assay [3] is Mu-type opioid receptor (Homo sapiens, UniProt P35372). As to the kind of experiment: Binding affinity determined against Opioid receptor mu 1 from human cloned receptor.
Sequence of Mu-type opioid receptor (Homo sapiens, UniProt P35372) (P35372 whole entry): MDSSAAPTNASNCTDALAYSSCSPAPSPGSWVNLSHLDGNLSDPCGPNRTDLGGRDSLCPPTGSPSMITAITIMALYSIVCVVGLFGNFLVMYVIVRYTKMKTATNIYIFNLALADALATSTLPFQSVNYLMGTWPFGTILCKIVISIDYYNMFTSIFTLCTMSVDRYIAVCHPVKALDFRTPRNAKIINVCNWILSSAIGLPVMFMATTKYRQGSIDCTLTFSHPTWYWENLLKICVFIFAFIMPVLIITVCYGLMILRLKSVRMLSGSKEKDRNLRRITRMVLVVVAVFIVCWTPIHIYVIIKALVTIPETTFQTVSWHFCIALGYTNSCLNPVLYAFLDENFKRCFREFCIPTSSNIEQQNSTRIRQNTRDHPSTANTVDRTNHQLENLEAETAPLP
Assay [4] has as its target Kappa-type opioid receptor (Cavia porcellus, UniProt P41144). As to the kind of experiment: Binding affinity determined against Opioid receptor kappa 1 from a native receptor in guinea pig.
Assay [5] has as its target Mu-type opioid receptor (Cavia porcellus, UniProt P97266). As to the kind of experiment: Binding affinity of compound was determined against Opioid receptor mu 1 from native receptor in guinea pig.
Assay [6] concerns the target Delta-type opioid receptor (Homo sapiens, UniProt P41143).
Description: Binding affinity determined against Opioid receptor delta 1 from human cloned receptor

Sequence of Delta-type opioid receptor (P41143 whole entry): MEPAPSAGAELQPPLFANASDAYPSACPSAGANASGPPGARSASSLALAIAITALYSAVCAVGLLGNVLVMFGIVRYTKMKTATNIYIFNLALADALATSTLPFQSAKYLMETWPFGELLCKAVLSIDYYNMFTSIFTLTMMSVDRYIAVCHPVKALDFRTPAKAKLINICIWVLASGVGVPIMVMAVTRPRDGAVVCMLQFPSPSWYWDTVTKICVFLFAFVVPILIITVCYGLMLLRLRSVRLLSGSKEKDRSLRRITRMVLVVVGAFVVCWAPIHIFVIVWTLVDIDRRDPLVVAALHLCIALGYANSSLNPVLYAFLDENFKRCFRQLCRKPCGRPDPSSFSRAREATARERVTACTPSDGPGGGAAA
T1 sequence (P41145 whole entry): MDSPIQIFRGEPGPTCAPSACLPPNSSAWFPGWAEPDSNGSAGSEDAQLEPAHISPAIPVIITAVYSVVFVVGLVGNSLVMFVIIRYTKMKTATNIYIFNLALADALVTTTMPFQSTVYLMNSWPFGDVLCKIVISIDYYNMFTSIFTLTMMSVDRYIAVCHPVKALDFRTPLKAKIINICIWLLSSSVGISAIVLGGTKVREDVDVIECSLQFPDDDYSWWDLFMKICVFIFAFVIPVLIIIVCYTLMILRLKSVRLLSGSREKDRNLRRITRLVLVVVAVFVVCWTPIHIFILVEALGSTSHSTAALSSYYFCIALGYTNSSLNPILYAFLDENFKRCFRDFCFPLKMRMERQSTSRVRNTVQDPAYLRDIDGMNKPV
Sequence of Kappa-type opioid receptor (Cavia porcellus, UniProt P41144) (P41144 whole entry): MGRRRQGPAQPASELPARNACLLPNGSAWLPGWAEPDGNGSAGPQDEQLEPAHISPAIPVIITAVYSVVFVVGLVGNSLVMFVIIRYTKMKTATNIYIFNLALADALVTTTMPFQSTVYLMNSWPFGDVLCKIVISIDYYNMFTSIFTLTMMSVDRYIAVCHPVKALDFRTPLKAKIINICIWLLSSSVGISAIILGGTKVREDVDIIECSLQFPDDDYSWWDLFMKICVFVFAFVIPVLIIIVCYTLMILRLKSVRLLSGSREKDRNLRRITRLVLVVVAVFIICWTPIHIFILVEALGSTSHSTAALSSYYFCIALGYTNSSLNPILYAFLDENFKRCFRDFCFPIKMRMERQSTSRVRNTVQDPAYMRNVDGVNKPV
Sequence of Mu-type opioid receptor (Cavia porcellus, UniProt P97266) (P97266 whole entry): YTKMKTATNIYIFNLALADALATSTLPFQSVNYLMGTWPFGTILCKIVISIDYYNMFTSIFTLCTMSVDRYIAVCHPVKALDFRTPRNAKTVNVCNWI

Regarding `O=C(NCCC1CN=C(c2ccccc2)c2ccccc2N1)c1ccccc1` (configuration not stated), the Ki is 0.251 nM in assay [1] and 0.25 nM in assay [2].

With `CN1c2ccc(Cl)cc2C(c2ccccc2)=NCC1CCNC(=O)c1cccs1` (configuration not stated), the figures for the inhibition constant (Ki) (in assay [2]; on Mu-type opioid receptor [3]) were 0.7 nM and 26.3 nM, respectively.

Take `CN1c2ccc(Cl)cc2C(c2ccccc2)=NCC1CCNC(=O)c1ccccc1F` (configuration not stated): the Ki in assay [1] is 1.55 nM; in assay [2], 1.52 nM.

In the case of `COc1cccc2c1C(c1ccccc1)=NCC(CCNC(=O)c1cccs1)N2C` (configuration not stated), the figures for the Ki in assay [1], in assay [2] and in assay [4] were 3.8 nM, 3.77 nM and 116 nM, respectively.

Regarding `O=C(NCCC1CN=C(c2ccccc2)c2ccccc2N1)c1cccs1` (configuration not stated), the Ki in assay [1] is 0.447 nM; in assay [2] it was 0.45 nM; in assay [4], 1.74 nM.

Turning to `CN1c2ccccc2C(c2ccccc2)=NCC1CCNC(=O)c1ccc(F)cc1` (configuration not stated), the Ki in assay [1] is 0.302 nM; in assay [2], 0.3 nM.

Turning to `CN1c2ccc(Cl)cc2C(c2ccccc2)=NCC1CCNC(=O)c1cc2ccccc2[nH]1` (configuration not stated), the figures for the inhibition constant (Ki) in assay [1] and in assay [2] were 13.5 nM and 13.6 nM, respectively.

`CN1c2ccccc2C(c2ccccc2F)=NCC1CCNC(=O)c1ccsc1` (configuration not stated): the Ki in assay [2] amounted to 0.37 nM; at Mu-type opioid receptor [3], 3 nM; on Mu-type opioid receptor [5] it was 1.93 nM; in assay [4] it was 0.78 nM; in assay [6] it was 69 nM.

For `CN1c2ccc(Cl)cc2C(c2ccccc2)=NCC1CCNC(=O)c1ccc(F)cc1` (configuration not stated), the Ki in assay [1] and in assay [2] was 0.55 nM throughout.

`CN1c2ccccc2C(c2ccccc2)=NCC1CCNC(=O)c1cccs1` (configuration not stated): the Ki was 0.58 nM in assay [2] and 9.4 nM at Mu-type opioid receptor [3].

Take `CN1c2ccccc2C(c2ccccc2)=NC[C@@H]1CCNC(=O)c1cccs1`: the Ki was 0.427 nM in assay [1], 0.43 nM in assay [2] and 9.2 nM on Mu-type opioid receptor [3].

Turning to `CN1c2ccc(Cl)cc2C(c2ccccc2)=NC[C@@H]1CCNC(=O)c1cccs1`, the Ki in assay [1] was 0.692 nM; in assay [2], 0.69 nM; at Mu-type opioid receptor [3], 27.4 nM.

Regarding `CN1c2ccccc2C(c2ccccc2F)=NC[C@@H]1CCNC(=O)c1ccsc1`, the Ki in assay [1] was 0.17 nM; in assay [2], 0.17 nM; at Mu-type opioid receptor [3] it was 1.5 nM; in assay [6], 27.8 nM.

Turning to `CN1c2ccccc2C(c2ccccc2)=NC[C@H]1CCNC(=O)c1cccs1`, the Ki in assay [2] came to 1.28 nM; on Mu-type opioid receptor [3], 54.8 nM.

Take `CN1c2ccc(Cl)cc2C(c2ccccc2)=NC[C@H]1CCNC(=O)c1cccs1`: the figures for the Ki (in assay [2]; on Mu-type opioid receptor [3]) were 0.79 nM and 33.2 nM, respectively.

`CN1c2ccccc2C(c2ccccc2F)=NC[C@H]1CCNC(=O)c1ccsc1`: the Ki worked out at 0.71 nM in assay [2], 24.8 nM on Mu-type opioid receptor [3] and 438 nM in assay [6].

`O=C(NCCC1CN=C(c2ccccc2)c2ccccc2N1)c1ccccc1F` (configuration not stated): the Ki in assay [1] was 0.537 nM; in assay [2], 0.53 nM.

With `CN1c2ccccc2C(c2ccccc2)=NCC1CCNC(=O)c1ccc([N+](=O)[O-])cc1` (configuration not stated), the Ki in assay [1] is 0.479 nM; in assay [2] it was 0.47 nM.

Take `CN(CCC1CN=C(c2ccccc2)c2ccccc2N1C)C(=O)c1cccs1` (configuration not stated): the Ki in assay [1] is 4.37 nM; in assay [2] it was 4.34 nM; in assay [4], 25.7 nM.

For the compound `CN1c2ccc(Cl)cc2C(c2ccccc2)=NCC1CCNC(=O)c1ccc(Cl)cc1` (configuration not stated), the Ki was 1.32 nM in assay [1] and 1.31 nM in assay [2].

For the compound `O=C(NCCC1CN=C(c2ccccc2)c2ccccc2N1)c1ccc(F)cc1` (configuration not stated), the Ki in assay [1] was 0.282 nM; in assay [2], 0.28 nM.

Take `CN1c2ccccc2C(c2ccccc2)=NCC1CCNC(=O)c1ccccc1F` (configuration not stated): the figures for the Ki in assay [1] and in assay [2] were 0.363 nM and 0.36 nM, respectively.

Take `Oc1ccc2c3c1O[C@H]1c4[nH]c5ccccc5c4C[C@@]4(O)[C@@H](C2)N(CC2CC2)CC[C@]314` [NALTRINDOLE]: the values for the Ki (at Mu-type opioid receptor [5]; in assay [4]) were 14.7 nM and 10.2 nM, respectively.

(Values after ChEMBL document CHEMBL1144935, “Synthesis, biological evaluation, and receptor docking simulations of 2-[(acylamino)ethyl]-1,4-benzodiazepines as kappa-opioid receptor agonists endowed with antinociceptive and antiamnesic activity” (J Med Chem, 2003).)
